Reference: patent US20250059187A1, “COVALENTLY BINDING INHIBITORS OF G12S, G12D AND/OR G12E MUTANTS OF K-RAS GTPASE” (The Regents of the University of California, priority 2021, published 2025)

How the values were obtained:
[1] = target: K-Ras(G12S) (Homo sapiens, UniProt P01116, G12S); assay: Covalent modification of recombinant K-Ras(G12S) by whole-protein mass spectrometry; type: binding; design: human K-Ras (G12S, aa 1-169); 6xHis tag + TEV cleavage site (N, cleaved yes); made in house; host or cells: E. coli BL21(DE3); conditions: 23° C.
Method in brief: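 Recombinant K-Ras diluted to 400 nM or 1 μM in 20 mM HEPES pH 7.5, 150 mM NaCl, 1 mM MgCl2 and incubated with compound added from 100× DMSO stock. Modification extent measured by electrospray whole-protein mass spectrometry; kinetics used 1:1 mixing with 400 nM protein and injection time stamps for elapsed time.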

[2] = system: H358 cells (heterozygous KRAS p.G12C); assay: Immunoblot in H358 cells; type: cell-based; conditions: 10 μM, 2 h
Protocol: (§1) Cells were passed for at least two generations after cryorecovery before they were used for assays. All cell lines were tested mycoplasma negative using MycoAlert™ Mycoplasma Detection Kit (Lonza). When indicated, cells were treated with drugs at 40-60% confluency at a final DMSO concentration of 1%. At the end of treatment period, cells were placed on ice. Unless otherwise indicated, adherent cells were washed once with ice-cold PBS (1 mL), scraped with a spatula, and pelleted by centrifugation (500×g, 5 min). Suspension cells were pelleted by centrifugation (500×g, 5 min), washed with 1 mL ice-cold PBS, and pelleted again. Cells were lysed in RIPA buffer supplemented with protease and phosphatase inhibitors (cOmplete and phosSTOP, Roche) on ice for 10 min. For RBD pulldown experiments, cells were lysed in Co-IP Lysis Buffer in lieu of RIPA buffer. Lysates were clarified by high-speed centrifugation (19,000×g, 10 min). Concentrations of lysates were determined with protein BCA assay (Thermo Fisher) and adjusted to 2 mg/mL with additional RIPA buffer (or Co-IP Lysis Buffer). […]
(§2) Unless otherwise noted, SDS-PAGE was run with Novex 16% Bis-Tris gel (Invitrogen) in MES running buffer (Invitrogen) at 200 V for 60 min following the manufacturer's instructions. […] The membrane was washed three times with TBST (5 min each wash) and imaged on a Li-COR Odyssey fluorescence imager.

[3] = system: SW1990 cells (homozygous KRAS p.G12D); assay: Immunoblot in SW1990 cells (G12S ligand); type: cell-based; conditions: 10 μM, 2 h
Protocol: as §1, §2

[4] = system: Ba/F3:K-Ras(G12S) cells; assay: Phospho-ERK assay in Ba/F3:K-Ras(G12S) cells; type: cell-based, murine; conditions: 1 h treatment
Protocol: Ba/F3 parental cells were pelleted and resuspend in IL-3 supplemented growth medium (RPMI 1640, 10% heat-inactivated FBS, 10 ng/mL mouse IL-3 medium) to 1×10^7/mL. Ba/F3 K-Ras(G12S) transductant cells were pelleted and resuspended in IL-3 free growth medium (RPMI 1640, 10% heat-inactivated FBS) to 1×10^7/mL. 25 μL cells were added to each well of a 96-well plate (2.5×10^5 cells/well), followed by 5 μL 6× compound solutions (6% DMSO). The mixture was incubated at 37° C. for 1 h. Cell lysis and subsequent high-throughput phospho-ERK assay was performed using Cisbio Advanced phospho-ERK (Thr202/Tyr204) cellular kit (PerkinElmer 64AERPEG) following the manufacturer's instructions.

[5] = system: Ba/F3:K-Ras(G12S) cells (without IL-3); assay: Cell viability assay (CellTiter-Glo), Ba/F3:K-Ras(G12S) cells; type: cell-based, murine
Protocol: Cells were seeded into 96-well white flat bottom plates (1,000 cells/well) (Corning) and incubated overnight. […] Cell viability was assessed using a commercial CellTiter-Glo (CTG) luminescence-based assay (Promega). Briefly, the 96-well plates were equilibrated to room temperature before the addition of diluted CTG reagent […] (1:4 CTG reagent:PBS). Plates were placed on an orbital shaker for 30 min before recording luminescence using a Spark 20M (Tecan) plate reader.

[6] = target: T1, wild type K-Ras (Homo sapiens, UniProt P01116); assay: Covalent modification of test protein after incubation with compound; type: binding; conditions: 24-h incubation with 100 μM compound at 23° C. at pH 7.5
T1 construct: human K-Ras (wildtype, aa 1-169); 6xHis tag + TEV cleavage site (N, cleaved yes); made in house; host or cells: E. coli BL21(DE3)

[7] = system: cell lines with confirmed KRAS p.G12S mutations; assay: Immunoblot in four cell lines with confirmed KRAS p.G12S mutations; type: cell-based; conditions: 10 μM, 2 h
Protocol: as §1, §2

[8] = target: T2, K-Ras G12D (Homo sapiens, UniProt P01116, G12D); assay: Covalent modification of test protein after incubation with compound; type: binding; conditions: 24-h incubation with 100 μM compound at 23° C. at pH 7.5
T2 construct: human K-Ras (G12D, aa 1-169); 6xHis tag + TEV cleavage site (N, cleaved yes); made in house; host or cells: E. coli BL21(DE3)

[9] = system: A375 cells (wild-type KRAS); assay: Immunoblot in A375 cells; type: cell-based; conditions: 10 μM, 2 h
Protocol: as §1, §2

O=C1O[C@H]2CN(c3nc(OCC45CCCN4CCC5)nc4c(F)c(-c5cccc6cccc(Cl)c56)ncc34)CC[C@@H]12 [5′]
covalent reaction with K-Ras(G12S)·GDP ([1]; 10 μM compound): enhanced reaction | time to 100% modification of K-Ras(G12S)·GDP ([1]; 10 μM): < 10 min | % covalent modification of K-Ras G12S ([1]; 24-h incubation, 100 μM compound, pH 7.5): 100% | phospho-Erk in H358 cells [2]: weak inhibition of phospho-Erk | signaling in SW1990 cells [3]: did not perturb the signaling | phospho-ERK levels [4]: dose-dependent reduction of phospho-ERK levels | selectivity, Ba/F3:K-Ras(G12S) over parental Ba/F3 cells [5]: five-fold | IC50 ([5]; Mus musculus, BaF3, no IL-3, 72 h, read-out: IC50, growth of K-Ras(G12S)-transduced Ba/F3 cells): 2.4 µM | % covalent modification of wild type K-Ras [6]: 0% | phospho-ERK level and K-Ras gel mobility [7]: reduction of phospho-ERK level and gel mobility shift of the K-Ras protein | % covalent modification of K-Ras G12D [8]: 0% | signaling in A375 cells [9]: did not perturb the signaling
